This is an account of results in patent US12384806B2, “Isopaucifloral F phosphate compound and pharmaceutical use thereof” (FUDAN UNIVERSITY, priority 2020, dated 2025).

The test system of data set [1] is mouse osteoblast precursor cells MC3T3-E1 Subclone 14. Kind of data set: Differentiation-promoting effect, ALP enzyme activity assay. The settings on record: for ALP enzyme activity relative values (experimental group/blank group): 6th day. The format is cell-based. From the text:
(2) Study on the differentiation-promoting effect of compounds on mouse osteoblast precursor cells MC3T3-E1 Subclone 14 (see Table 2): MC3T3-E1 subclone 14 cells were digested with pancreatin and collected and then seeded into a 6-well plate at 4×10^4/well. […] The administration concentrations of the compounds were 10^−4˜10^−9 M, respectively; and the administration concentration of the positive control drug group genistein GEN was 10^−6 M, a concentration at which it had the highest osteogenesis promoting ability as reported in the literature. On the 6th day of administration, each well was washed twice with PBS, 150 uL of Western and IP cell lysate (with no protein inhibitor, commercially available from Beyotime) was then added to lyse the cells. This operation was performed on ice. 50 uL of cell lysate was diluted to 250 uL with PBS. 50 uL of dilution was additionally transferred to a 96-well plate for an ALP enzyme activity assay. The absorbance of each well in the 96-well plate was measured with a microplate reader at 405 nm.

The test system is the same in data set [2]. The data set is described as follows: Proliferation-promoting effect by MTT assay. The format is cell-based. As to conditions: for Proliferation Rate: 6th day, MTT. On the procedure:
Genistein and estradiol were used as positive control groups. MC3T3-E1 Subclone 14 was cultured using the α-MEM medium containing 10% FBS in a constant temperature incubator at 37° C. with 5% CO2. The MC3T3-E1 Subclone 14 cells in logarithmic growth phase and in good condition were digested with addition of an appropriate amount of trypsin (commercially available from GIBCO), and the cells were collected. The cells were resuspended in the α-MEM medium containing 10% FBS, and seeded on a 96-well plate at an amount of 2000 cells per well. After cell adhesion, the medium was changed to the α-MEM medium containing 10% FBS of different concentrations of compounds at 200 μL per well. The cells with the culture fluid containing 0.2% DMSO added thereto were used as a negative control group of the medium. The medium was added to the wells without seeded cells as a blank control group. Six replicate wells were set for each concentration. The medium was changed once every 2 days, and on the 6th day of administration, a 20 μL MTT/PBS solution at 5 mg/mL was added to the above 96-well plate, and the incubation was continued for 4 hours. After the time point, the liquid was carefully aspirated and 150 μL of DMSO was added to each well to completely dissolve the purple crystal formazan formed by live cells and MTT. The optical density (OD) value was measured at 490 nm with a microplate reader. The proliferation rate was calculated according to the following formula: Proliferation rate=[(the average OD value of the administration group−the average OD value of the blank group)/(the average OD value of the culture fluid control group−the average OD value of the blank group)].

The test system of data set [3] is osteoblasts. Kind of data set: Formation of calcium nodules in osteoblasts (Alizarin Red). Format: cell-based, mouse. The settings on record: 15th day. How it is done: (3) Study on the effect of target compounds on the formation of calcium nodules in osteoblasts (see FIG. 1 and Table 3 for details): after being digested, the cells were seeded into a 6-well plate at 4×10^4/well. […] The administration concentrations of the compounds were 10^−4˜10^−9 M, respectively; and the concentration of genistein is 10^−6 M. On the 15th day of administration, the medium was aspirated, each well was then washed twice with PBS, the cells were then fixed with 95% ethanol for 10 minutes and rinsed twice with double distilled water. 2 mL of a 0.1% Alizarin Red-Tris. HCl solution (PH=8.3) was added to each well, the cells were incubated at 37° C. for 30 minutes, then rinsed with double distilled water for several times, dried, and mounted. The formation of calcium nodules was further observed by taking pictures under a 40× microscope. Afterwards, 1 mL of a 10% cetylpyridinium chloride solution was added to each well, and the incubation was carried out for 30 minutes to release the Alizarin Red staining. The solution was transferred to a 96-well plate at 200 uL per well, the absorbance was measured at 562 nm using a microplate reader, and a quantitative analysis of calcium nodules was performed.

Data set [4] in a line: Determination of lipid-water partition coefficients (n-octanol/water, HPLC). Format: physicochemical. The settings on record: 37° C.
Experimental: (1) Determination of lipid-water partition coefficients: a standard curve was first made. […] Their respective solution was subjected to the HPLC sample injection analysis. HPLC conditions were: mobile phase: 5%˜95% acetonitrile/water, gradient elution, a flow rate of 0.6 mL/min, a sample injection volume of 10 μL, a detection wavelength of 254/280 nm, run for 20 min. The retention time and peak area were recorded, and the standard curve was obtained by regressing the concentration and the peak area.
Moreover, 10 mL of water and 10 mL of n-octanol were taken into a 25 mL eggplant-shaped flask and stirred for 24 hours until the two phases were saturated with each other. The mixed solution was then transferred to a separatory funnel. Let it stand for liquid separation. 1 mL of the upper layer (saturated n-octanol layer) was taken, about 2 mg of the compound to be tested was added to vortex for 5 minutes to fully dissolve, and 1 mL of saturated aqueous phase was additionally taken and mixed with the saturated n-butanol phase in which the compound was dissolved. After vortexing for 5 minutes and oscillation for 24 hours in a water bath at 37° C., centrifugation was performed at 3500 rpm for 15 minutes. The upper n-octanol layer and the lower aqueous layer were respectively taken for the sample injection analysis under HPLC conditions. […]
Data set [5] concerns mouse mononuclear macrophages RAW264.7. The data set is described as follows: Bone resorption inhibition: TRAP-positive multinucleated osteoclast count. The format is cell-based. As to conditions: 5 days; for Number of Osteoclasts (cell): control group 117. On the procedure:
After being cultured for 5 days, the cells were stained with a tartrate-resistant acid phosphatase TRAP incubation solution, mounted with glycerol gelatin, and observed under light microscope to count stained TRAP-positive multinucleated cells (as shown in FIG. 2). The inhibition rate of the administrated drug on the number of TRAP-positive multinucleated cells is (nTRAP-positive multinucleated osteoclasts in the negative control group−nTRAP-positive multinucleated osteoclasts in the drug administration group)/nTRAP-positive multinucleated osteoclasts in the negative control group×100%.

Data set [6] can be described thus: Metabolic stability in human liver microsomes. Format: in vitro ADME. As to conditions: 37° C. How it is done:
Experimental method: the incubation system comprising human liver microsomes, cofactors, and PBS was pre-incubated at 37° C. for 3 minutes, and a substrate was added to start the reaction. Sampling was performed at 0, 1, 5, 10, 15, 20, 30, and 60 minutes after the start of the reaction, and an appropriate terminator was added to terminate the reaction. Sample treatment (n=3): appropriate internal standards were added to each; after vortexing, centrifugation was performed at a high speed, the supernatant was taken, and the substrate was detected by employing HPLC-MS/MS. The peak area at a time point 0 min was taken as 100%. Peak areas at other time points were converted to the remaining percentage, the natural logarithm of the remaining percentage at each time point versus incubation time was plotted, and a slope (−k) was calculated by linear regression, and then CLint (mL·min^−1·mg^−1) was calculated based on the inherent clearance (CLint)=(k×the volume of incubation solution)/mass of liver microsomes.

In data set [7] the target is estrogen receptor ERβ (Homo sapiens, UniProt Q92731). The data set is described as follows: Estrogen receptor agonism (earlier experiments of the research team).
Sequence of estrogen receptor ERβ (Q92731 whole entry): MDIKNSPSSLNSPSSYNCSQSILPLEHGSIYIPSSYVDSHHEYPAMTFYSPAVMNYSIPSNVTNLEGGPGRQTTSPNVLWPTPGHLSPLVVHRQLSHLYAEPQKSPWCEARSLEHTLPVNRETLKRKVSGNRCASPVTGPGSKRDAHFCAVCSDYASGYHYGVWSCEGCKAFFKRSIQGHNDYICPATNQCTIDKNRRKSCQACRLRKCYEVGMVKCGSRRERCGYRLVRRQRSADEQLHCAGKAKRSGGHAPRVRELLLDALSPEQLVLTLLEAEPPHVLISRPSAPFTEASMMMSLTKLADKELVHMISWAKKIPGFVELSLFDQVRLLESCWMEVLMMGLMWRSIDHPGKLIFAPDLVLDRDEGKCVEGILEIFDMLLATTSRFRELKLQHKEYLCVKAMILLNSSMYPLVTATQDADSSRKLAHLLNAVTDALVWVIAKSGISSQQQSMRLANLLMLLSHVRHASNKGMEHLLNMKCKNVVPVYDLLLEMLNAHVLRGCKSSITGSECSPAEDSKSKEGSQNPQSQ

For `CCOP(=O)(OCC)OC1=C(c2cc(OC)cc(OC)c2)C(c2ccc(OP(=O)(OCC)OCC)cc2)c2c(OC)cc(OC)cc21` (stereo not drawn) [7a], the “ALP enzyme activity relative values (experimental group/blank group)” value is on record as 2.362 ± 0.04 in data set [1] (10^−4 M); 1.440 ± 0.31 in data set [1] (10^−5 M); 1.023 ± 0.05 in data set [1] (10^−6 M); 0.877 ± 0.01 in data set [1] (10^−7 M); 0.860 ± 0.01 in data set [1] (10^−8 M); 0.861 ± 0.05 in data set [1] (10^−9 M).

Turning to `CCOP(=O)(OCC)OC1=C(c2cc(OC)cc(OC)c2)C(c2ccc(OC)cc2)c2c(OC)cc(OC)cc21` (stereo not drawn) [7b], the “ALP enzyme activity relative values (experimental group/blank group)” value is listed as 0.919 ± 0.04 in data set [1] (10^−4 M); 0.986 ± 0.17 in data set [1] (10^−5 M); 0.993 ± 0.01 in data set [1] (10^−6 M); 1.195 ± 0.02 in data set [1] (10^−7 M); 1.097 ± 0.07 in data set [1] (10^−8 M); 0.899 ± 0.11 in data set [1] (10^−9 M).

As for `C[C@]12CC[C@@H]3c4ccc(O)cc4CC[C@H]3[C@@H]1CC[C@@H]2O` [E2, estradiol], the “Proliferation Rate” value was 0.05 ± 0.002 in data set [2] (10^−4 M); 0.82 ± 0.003 in data set [2] (10^−5 M); 1.07 ± 0.019 in data set [2] (10^−6 M); 1.08 ± 0.003 in data set [2] (10^−7 M); 1.07 ± 0.005 in data set [2] (10^−8 M); 1.06 ± 0.003 in data set [2] (10^−9 M). The “ALP enzyme activity relative values (experimental group/blank group)” value in data set [1] (10^−8 M) is reported as 1.050 ± 0.02. Further, the “Relative values of calcium nodule amount (experimental group/blank group)” value in data set [3] (10^−8 M) was determined as 1.007 ± 0.02.

Regarding `O=c1c(-c2ccc(O)cc2)coc2cc(O)cc(O)c12` [GEN, genistein], the “Proliferation Rate” value in data set [2] (10^−4 M) amounted to 0.02 ± 0.0003; in data set [2] (10^−5 M), 0.71 ± 0.007; in data set [2] (10^−6 M), 1.05 ± 0.019; in data set [2] (10^−7 M) it was 0.99 ± 0.003; in data set [2] (10^−8 M), 1.01 ± 0.005; in data set [2] (10^−9 M), 1.03 ± 0.003. For the same compound, in data set [1] (10^−6 M), the “ALP enzyme activity relative values (experimental group/blank group)” value is recorded as 1.341 ± 0.01. Also, in data set [3] (10^−6 M), the “Relative values of calcium nodule amount (experimental group/blank group)” value turned out to be 1.028 ± 0.03.

Turning to `O=C1c2cc(O)cc(O)c2[C@@H](c2ccc(O)cc2)[C@@H]1c1cc(O)cc(O)c1` [Isopaucifloral F, isopaucifloral F], the log partition coefficient (log P) in data set [4] is 1.34. Also, the “Proliferation Rate” value in data set [2] (10^−4 M) was found to be 1.24 ± 0.028; in data set [2] (10^−5 M), 1.06 ± 0.014; in data set [2] (10^−6 M), 1.02 ± 0.024; in data set [2] (10^−7 M), 0.98 ± 0.020; in data set [2] (10^−8 M), 0.98 ± 0.045; in data set [2] (10^−9 M) it was 0.95 ± 0.016. The compound also registered a proliferation rates in data set [2] (highest value of each compound, concentration not given) of 124%. Moreover, the “ALP enzyme activity relative values (experimental group/blank group)” value in data set [1] (10^−4 M) is 0.732 ± 0.03; in data set [1] (10^−5 M), 0.951 ± 0.04; in data set [1] (10^−6 M), 0.954 ± 0.02; in data set [1] (10^−7 M) it was 1.135 ± 0.06; in data set [1] (10^−8 M) it was 1.029 ± 0.11; in data set [1] (10^−9 M), 0.864 ± 0.05. In data set [1] (highest value, concentration not given), the “ALP enzyme activity, times those of the control group” value was 1.14 times. For the same compound, the “ALP enzyme activity increased by” value in data set [1] (versus control group, concentration not given) is reported as 13.5%. The “Relative values of calcium nodule amount (experimental group/blank group)” value in data set [3] (10^−4 M) was found to be 0.982 ± 0.04; in data set [3] (10^−5 M), 0.915 ± 0.03; in data set [3] (10^−6 M), 0.932 ± 0.03; in data set [3] (10^−7 M), 0.964 ± 0.03; in data set [3] (10^−8 M) it was 0.917 ± 0.03; in data set [3] (10^−9 M), 0.916 ± 0.03. Moreover, the “Relative Inhibition Rates (%)” value in data set [5] (10^−4 M) is 28.2%; in data set [5] (10^−6 M), 27.4%; in data set [5] (10^−8 M), 12.8%. The “Number of Osteoclasts (cell)” value in data set [5] (10^−4 M) worked out at 84 cell; in data set [5] (10^−6 M), 85 cell; in data set [5] (10^−8 M), 102 cell. In addition, the “CLint(liver)” value in data set [6] was found to be 7.404 L/h/kg. In data set [6], the “T1/2” value was 10.1 min. For the same compound, the “activity at estrogen receptor ERβ” value in data set [7] is on record as “selective agonist”.

Turning to `O=C(c1ccc(OCCN2CCCCC2)cc1)c1c(-c2ccc(O)cc2)sc2cc(O)ccc12` [Raloxifene], the “Number of Osteoclasts (cell)” value came to 64 cell in data set [5] (10^−6 M) and 67 cell in data set [5] (10^−8 M). In addition, the inhibition at 1 µM in data set [5] (Mus musculus, RAW264.7, 120 h, 10^−6 M, read-out: Relative Inhibition Rates (%)) was 45.3%. For the same compound, in data set [5] (Mus musculus, RAW264.7, 120 h, 10^−8 M, read-out: Relative Inhibition Rates (%)), the inhibition at 0.01 µM was found to be 42.7%.
